This is an account of results in publication PMC7144934, “Design, Synthesis and Biological Evaluation of Phenyl Urea Derivatives as IDO1 Inhibitors” (Molecules, 2020).

“Also recorded” adds a separate entry of the source. Like-named read-outs stand apart in the source and are kept apart here.

The subject of one data set is IDO1. On the set-up: method as in PMID 30760888. To be noted: Figure 1; cited from earlier work.
In data set [1] the target is T1, Recombinant human IDO1 (rhIDO1) (Homo sapiens, UniProt P14902).
T1 construct: made in house
Description: Enzyme assay for IDO1 inhibition. In kind it is biochemical. To be noted: for IC50 / IDO1 inhibitory activity (in words): rhIDO1 enzyme assay; for IC50: 37 °C, 45 min.

Data set [2] addresses T2, Recombinant human TDO (rhTDO) (Homo sapiens, UniProt P48775).
T2 construct: made in house
The data set can be described thus: Enzyme assay for TDO inhibition. In kind it is biochemical. To be noted: 37 °C, 45 min. As to the method: Recombinant human IDO1 and TDO were expressed and purified according to the reported procedures. The assay was performed according to the literature: A standard reaction mixture (100 µL) containing 100 mM potassium phosphate buffer (pH 6.5), 40 mM ascorbic acid (neutralized with NaOH), 200 µg/mL catalase, 20 µM methylene blue and 0.05 µM rhIDO1 or rhTDO was added to the solution containing the substrate L-tryptophan and the test sample at a determined concentration. The reaction was carried out at 37 °C for 45 min and stopped by adding 20 µL of 30% (w/v) trichloroacetic acid. After heating at 65 °C for 15 min, 100 µL of 2% (w/v) p-dimethylaminobenzaldehyde in acetic acid was added to each well. The yellow pigment derived from kynurenine was measured at 492 nm using a SYNERGY-H1 microplate reader (Biotek Instruments, Inc., Winooski, VT, USA). IC50 was analyzed using the GraphPad Prism 8.0 software (GraphPad Software, San Diego, CA, USA).

For the next data set, the system named is human IDO1. On the set-up: method as in earlier work. To be noted: human IDO1/HEK 293 cells; read-out: IDO1 inhibitory activity IC50; cited from earlier work.
The nature of data set [3]: Single dose pharmacokinetic study in male C57BL/6 mice. In kind it is in vivo. To be noted: for AUC(0-inf): male, C57BL/6, mouse; for MRT inf: read-out: MRT(0–∞); for half-life: read-out: t1/2β (converted). The protocol: The animal Care and Welfare Committee of Institute of Materia Medica, Chinese Academy of Medical Sciences approved all animal care, housing, and laboratory procedures. Male C57BL/6 mice were used in the single dose pharmacokinetic studies. Compound i12 was prepared as a 3 mg/mL suspension with 0.5% CMC for oral use and was formulated as a 3 mg/mL solution with 10% DMSO in 20% HP-β-CD for intravenous injection. Sixteen mice were divided into two groups, 10 in the oral group and six in the intravenous group. After fasting 12 h with free access to water, mice were treated with a 3 mg/kg i.v. or 30 mg/kg oral dose of compound i12. Blood samples (50 µL) were collected at 5, 15, 30 min, 1, 2, 4, 6, 8, 12 and 24 h after oral administration and 2, 5, 15, 30 min, 1, 2, 4, 6, 8, 12 and 24 h after intravenous injection. After centrifugation, the plasma samples (20 µL) were precipitated by four volumes of acetonitrile. The supernatant were analyzed by liquid chromatography/tandem mass spectrometry with a Zorbax C18 column (50 mm × 2.1 mm, 3.5 µm). Compound detection was performed with the mass spectrometer in positive ionization mode by t-SIM: m/z 489.209 for compound i12. The pharmacokinetic parameters were calculated with WinNonlin software V6.3 using non-compartmental analysis (Pharsight Corporation, Mountain View, CA, USA).

The test system of data set [4] is mouse melanoma cells B16F10. The data set can be described thus: B16F10 subcutaneous xenograft model. In kind it is in vivo, mice. As to the method:
(§1) The mouse melanoma cells B16F10 were cultured and harvested in saline at 6 × 10^6 cells/0.2 mL volume. Cells (0.2 mL) were injected subcutaneously into male C57BL/6 mice at day 0 of the experiment, and treatment was initiated at day 1 following the mice enrolled randomly in control and experimental groups. For control group, 0.5% CMCNa was orally administered every day. The CTX group were administered CTX intraperitoneally at the dose of 100 mg/kg. Compound i12 was dissolved in 0.5% CMC-Na for oral treatment. After 17 days, the mice were sacrificed and the tumors were stripped and weighted. The tumor growth inhibition (TGI) was calculated as TGI = (1 − tumor weight treatment/tumor weight vehicle) × 100%. The statistical analysis was performed with GraphPad Prism 8.0 software and the significance level was evaluated with one-way ANOVA model.

Data set [5] concerns mouse pancreatic cancer cells PAN02. The data set can be described thus: PAN02 pancreatic cancer subcutaneous xenograft model. In kind it is in vivo, mice. As to the method: as §1, with “pancreatic cancer” for “melanoma”, “PAN02” for “B16F10”, “60 mg/kg” for “100 mg/kg.”, “15” for “17”
In another data set the test system is pathway. On the set-up: method as in PMID 30760888. To be noted: Figure 1; cited from earlier work.
Where [6] appears, read: ratio of IDO1 enzyme IC50 values.

T2 sequence (P48775 whole entry): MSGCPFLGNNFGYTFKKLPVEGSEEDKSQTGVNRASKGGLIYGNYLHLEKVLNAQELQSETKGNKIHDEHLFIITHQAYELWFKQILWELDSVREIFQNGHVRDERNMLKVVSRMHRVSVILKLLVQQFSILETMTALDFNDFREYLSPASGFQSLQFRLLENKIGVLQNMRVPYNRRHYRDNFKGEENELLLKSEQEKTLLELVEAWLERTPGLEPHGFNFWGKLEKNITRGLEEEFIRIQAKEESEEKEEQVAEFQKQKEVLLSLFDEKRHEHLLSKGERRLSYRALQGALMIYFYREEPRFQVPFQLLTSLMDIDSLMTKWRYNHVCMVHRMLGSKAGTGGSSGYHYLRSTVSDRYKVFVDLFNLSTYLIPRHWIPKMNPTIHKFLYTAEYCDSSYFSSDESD
T1 sequence (P14902 whole entry): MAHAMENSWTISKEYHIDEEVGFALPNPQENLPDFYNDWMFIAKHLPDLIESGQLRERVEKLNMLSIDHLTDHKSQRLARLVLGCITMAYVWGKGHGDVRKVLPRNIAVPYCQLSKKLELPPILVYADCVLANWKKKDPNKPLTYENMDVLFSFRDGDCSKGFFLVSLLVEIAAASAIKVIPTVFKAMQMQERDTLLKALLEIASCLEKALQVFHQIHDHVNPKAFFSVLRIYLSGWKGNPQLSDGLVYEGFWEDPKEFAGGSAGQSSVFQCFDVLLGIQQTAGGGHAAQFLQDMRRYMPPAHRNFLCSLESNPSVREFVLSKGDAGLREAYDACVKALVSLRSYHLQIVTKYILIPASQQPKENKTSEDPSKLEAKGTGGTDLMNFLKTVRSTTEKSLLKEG

Take `C[C@@H](C(=O)Nc1ccc(Cl)cc1)C1CCC(c2ccnc3ccc(F)cc23)CC1` (some centres unmarked) [BMS-986205]: the concentration for half-maximal inhibition (IC50) in the data set with IDO1 is 0.0017 µM.

On to `CC(C)CN(CC(C)C)c1ccc(C(CC(=O)O)C(F)(F)F)cc1NC(=O)Nc1ccc(F)cc1F` (centres unmarked) [BMS-E30, reference compound], for which the results for the IC50 (in [1]; in data set [2]; in the data set on human IDO1) were 8.57 µM, more than 100 µM and 0.0007 µM, respectively.

For `NS(=O)(=O)NCCNc1nonc1C(=NO)Nc1ccc(F)c(Br)c1` [Epacadostat], the IC50 in the data set on IDO1 is […].

Compound `CC1CC(C)CN(c2ccc(C(CC(=O)O)C(F)(F)F)cc2NC(=O)Nc2ccccc2)C1` (centres unmarked) [i1, 3-[4-(3,5-dimethylpiperidin-1-yl)-3-(3-phenylureido)-phenyl]-4,4,4-trifluorobutyric Acid] registered a melting point of 94.1 to 95.7 °C. In addition, in data set [1], the half-maximal inhibitory concentration (IC50) is 34.1 µM. For the same compound, in [2], the IC50 is more than 100 µM.

As to `CC1CC(C)CN(c2ccc(C(CC(=O)O)C(F)(F)F)cc2NC(=O)Nc2ccc(C#N)cc2)C1` (centres unmarked) [i12, 3-[3-[3-(4-cyanophenyl)ureido]-4-(3,5-dimethylpiperidin-1-yl)-phenyl]-4,4,4-trifluorobutyric Acid], the “fold improvement in IDO1 inhibitory activity compared to compound i1” value in data set [1] (setting [6]) is given as 100 fold. Besides, in data set [1], the “IDO1 inhibitory activity (in words)” value is listed as “more potent IDO1 inhibitory activity than the unsubstituted i1” and the 50% inhibitory concentration (IC50) amounted to 0.331 µM. For the same compound, the IC50 in data set [2] is more than 100 µM. Also, the “AUC(0–∞)” value in data set [3] (PO 30 mg/kg, 30 mg/kg) was 12,849 h·ng/mL. Further, in [3] (plasma, iv, 3 mg/kg, IV 3 mg/kg), the total exposure AUC(0-inf) came out at 2160 ng·h/mL. The AUC(0-inf) in data set [3] (plasma, po, 30 mg/kg, PO 30 mg/kg) was 11500 ng·h/mL. Further, in data set [3] (mouse, plasma, IV 3 mg/kg), the AUC(0-t) was 1320 ng·h/mL, the peak level (Cmax) was 6960 ng/mL, the MRT inf stood at 8.6 h and the half-life is 7.17 h. In addition, in data set [3] (mouse, plasma, IV 3 mg/kg, read-out: Cl (plasma clearance)), the clearance came out at 22.4 mL/min/kg. Moreover, the Vd in data set [3] (mouse, plasma, IV 3 mg/kg, read-out: Vss) came out at 15.8 L/kg. Further, in data set [3] (mouse, plasma, PO 30 mg/kg), the area under the curve AUC(0-t) turned out to be 11500 ng·h/mL, the highest level (Cmax) was 2700 ng/mL, the time of peak concentration (Tmax) was 2 h and the MRT inf was found to be 8.18 h. Moreover, in data set [3] (mouse, plasma, PO 30 mg/kg), the half-life was 11.2 h. Moreover, the bioavailability in [3] (mouse, plasma, PO 30 mg/kg vs IV 3 mg/kg, read-out: F% (oral bioavailability)) was found to be 87.4%. Besides, the “tumor growth inhibition (TGI)” value in [4] (15 mg/kg daily, oral, 17 days, tumor weight) is listed as 40.5%. The “body weight compared with the control group” value in data set [4] (i12 orally 15, 30 or 100 mg/kg, B16F10 xenograft mice) is given as “no obvious body weight difference; also recorded: no obvious reduction; also recorded: no significant changes”. For the same compound, the “tumor growth inhibition (TGI)” value in [5] (30 mg/kg daily, oral, 15 days, tumor weight) came to 34.3%. The “body weight of each group after the treatment” value in data set [5] (i12 orally 10, 30 or 100 mg/kg, PAN02 xenograft mice) is “no obvious body weight difference”.

On to `CC1CC(C)CN(c2ccc(C(CC(=O)O)C(F)(F)F)cc2NC(=O)Nc2ccc([N+](=O)[O-])cc2)C1` (centres unmarked) [i24, 3-{4-(3,5-dimethylpiperidin-1-yl)-3-[3-(4-nitrophenyl)ureido]phenyl}-4,4,4-trifluorobutyric Acid], for which, in data set [1] (setting [6]), the “fold more potent than compound BMS-E30 (IDO1)” value worked out at 55 fold. Besides, the IC50 in data set [1] is 0.157 µM; in data set [2], more than 100 µM.

Turning to `Cn1cc(C[C@@H](N)C(=O)O)c2ccccc21` [indoximod], in the data set on pathway, the IC50 was 0.45 µM.

As for `CC1CC(C)CN(c2ccc(C(CC(=O)O)C(F)(F)F)cc2NC(=O)Cc2ccc(C#N)cc2)C1` (centres unmarked) [j1, 3-[3-[2-(4-cyanophenyl)acetylamino]-4-(3,5-dimethylpiperidin-1-yl)-phenyl]-4,4,4-trifluorobutyric Acid], in data set [1], the “IDO1 inhibitory activity (in words)” value is given as “no inhibitory activity” and the 50% inhibitory concentration (IC50) was more than 100 µM. Moreover, in data set [2], the half-maximal inhibitory concentration (IC50) is more than 100 µM.

Regarding `CC1CC(C)CN(c2ccc(C(CC(=O)O)C(F)(F)F)cc2NC(=O)Cc2ccc(C(F)(F)F)cc2)C1` (centres unmarked) [j2, 3-{4-(3,5-dimethylpiperidin-1-yl)-3-[2-(4-trifluoromethylphenyl)-acetylamino]phenyl}-4,4,4-trifluorobutyric Acid], in data set [1], the “IDO1 inhibitory activity (in words)” value is “no inhibitory activity”. In addition, the IC50 in [1] and in [2] was more than 100 µM in each case.

For `CC1CC(C)CN(c2ccc(C(CC(=O)O)C(F)(F)F)cc2NC(=O)Cc2ccc([N+](=O)[O-])cc2)C1` (centres unmarked) [j3, 3-{4-(3,5-dimethylpiperidin-1-yl)-3-[2-(4-nitrophenyl)acetylamino]-phenyl}-4,4,4-trifluorobutyric Acid], the “IDO1 inhibitory activity (in words)” value in data set [1] is reported as “no inhibitory activity”. Further, the IC50 in [1] and in data set [2] was more than 100 µM each time.

In general, IC50 refers to the concentration needed to halve the response being measured. The term melting point denotes the temperature of the solid-liquid transition. The AUC(0-inf) is the area under the concentration-time curve extrapolated to infinity. The term AUC(0-t) denotes exposure summed from dosing to a finite time, without extrapolation to infinity. What is called Cmax is the highest concentration seen after dosing. Usually clearance stands for the volume of plasma or blood freed of the substance per unit of time. One may read the Tmax as the time from dosing to the highest level. A word on the bioavailability: it is dose-corrected exposure relative to a reference, in per cent.
